Some results are limits rather than exact numbers.

This is an account of results in ChEMBL document CHEMBL1127295, “Development of a model for the delta opioid receptor pharmacophore. 2. Conformationally restricted Phe3 replacements in the cyclic delta receptor selective tetrapeptide Tyr-c[D-Cys-Phe-D-Pen]OH (JOM-13)” (J Med Chem, 1994).

Assay [1] concerns the target T1, Delta-type opioid receptor (Mus musculus, UniProt P32300). The assay can be described thus: Agonist activity was assessed in mouse vas deferens (MVD) smooth muscle bioassay. It is filed as functional, tissue-based, Muscle tissue.
In assay [2] the target is T1, Delta-type opioid receptor. The assay can be described thus: Binding affinity for delta opioid receptor using [3H]DPDPE from mouse vas deferens.
In assay [3] the target is T2, Mu-type opioid receptor (Cavia porcellus, UniProt P97266). The assay can be described thus: Agonist activity was assessed in an guinea pig ileum (GPI) smooth muscle bioassay. It is filed as functional, tissue-based.
T2 sequence (P97266 whole entry): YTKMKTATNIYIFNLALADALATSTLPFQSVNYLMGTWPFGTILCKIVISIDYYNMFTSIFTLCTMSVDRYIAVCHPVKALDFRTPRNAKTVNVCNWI
In assay [4] the target is T2, Mu-type opioid receptor. The assay can be described thus: Binding affinity against mu opioid receptor using [3H]DAMGO in guinea pig ileum. It is filed as tissue-based.

T1 sequence (P32300 whole entry): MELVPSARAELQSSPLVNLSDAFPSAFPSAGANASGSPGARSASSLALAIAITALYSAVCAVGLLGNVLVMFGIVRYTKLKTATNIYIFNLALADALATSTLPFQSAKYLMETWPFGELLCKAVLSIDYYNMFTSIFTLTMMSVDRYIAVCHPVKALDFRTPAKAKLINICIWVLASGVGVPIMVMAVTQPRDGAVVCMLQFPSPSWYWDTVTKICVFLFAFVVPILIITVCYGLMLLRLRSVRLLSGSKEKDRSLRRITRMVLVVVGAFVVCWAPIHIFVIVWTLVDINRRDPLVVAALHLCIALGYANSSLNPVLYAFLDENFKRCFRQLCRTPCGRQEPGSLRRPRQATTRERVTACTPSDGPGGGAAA

Broadly, the IC50 is the concentration at which inhibition is half-maximal. A high value points to weaker potency. A word on the Ki: it is the equilibrium dissociation constant of an inhibitor or competing ligand from its target. As for `C[C@@H](c1ccccc1)[C@H]1NC(=O)[C@@H](NC(=O)[C@@H](N)Cc2ccc(O)cc2)CSSC(C)(C)[C@@H](C(=O)O)NC1=O`, the IC50 in assay [1] is 1110 nM; on Mu-type opioid receptor [3] it was over 30000 nM. The results for the Ki (in assay [2]; at Mu-type opioid receptor [4]) were 237 nM and over 10000 nM, respectively.
For the molecule `CC1(C)SSC[C@H](NC(=O)[C@@H](N)Cc2ccc(O)cc2)C(=O)N[C@H](Cc2ccccc2)C(=O)N[C@@H]1C(=O)O` (stereo in doubt; 3), the IC50 in assay [1] turned out to be 51.8 nM. In assay [2], this molecule displayed a Ki of 12.3 nM.
On the same counts, the results for `CC1(C)SSC[C@H](NC(=O)[C@@H](N)Cc2ccc(O)cc2)C(=O)N[C@H](Cc2ccccc2)C(=O)N[C@@H]1C(=O)O` (stereo in doubt; 4) are 9.72 nM and 4.8 nM.
`CC1(C)SSC[C@H](NC(=O)[C@@H](N)Cc2ccc(O)cc2)C(=O)N[C@H](Cc2ccccc2)C(=O)N[C@@H]1C(=O)O` (stereo in doubt; 5) registered an IC50 in assay [1] of 4.13 nM. This molecule had a Ki in assay [2] of 1.52 nM.
`CC1(C)SSC[C@H](NC(=O)[C@@H](N)Cc2ccc(O)cc2)C(=O)N[C@H](Cc2ccccc2)C(=O)N[C@@H]1C(=O)O` (stereo in doubt; 6) registered a Ki in assay [2] of 70 nM.
